{
  "source": "patent US20170368119A1",
  "about": "“METHODS AND COMPOSITIONS FOR TREATING C-MET ASSOCIATED CANCERS” (YEASTERN BIOTECH CO., LTD, priority 2014, published 2017)",
  "key": {"[1]": {"assay": "toxicity test on normal SCID mice", "assay_type": "in vivo", "conditions": "20 μg/g mouse intraperitoneal, 2-3 month, data not shown", "description": "In comparison, the effect of c-Met inhibitor JNJ on tumor progression of HCC329 was not prominent (FIG. 4). The toxicity test of FIP-gts on SCID mice was also performed by treating 4 normal SCID mice without inoculation of HCC329."}, "[2]": {"test_system": "c-Met, p-c-Met, p-JNK, p-ERK, p-AKT in HCC372", "assay": "immuno-blotting of c-Met dependent signaling, HCC372", "assay_type": "cell-based, human", "conditions": "2.0 μg/ml", "description": "(§1) To investigate the molecular mechanism of FIP-gts in suppression of tumor progression of HCCs, the effects of FIP-gts on the activity and/or quantity of the critical members present in c-Met dependent signaling pathway, including c-Met, phosphorylated c-Met (p-c-Met) and downstream effectors p-JNK and p-ERK, were examined in HCCs. HCC329 and HCC372 cells were treated with FIP-gts (2 μg/ml) for 4 or 24 hours. Total proteins were harvested from the cells and subjected to immuno-blotting analysis using GAPDH as a loading control. Antibodies for p-c-Met, p-JNK, p-ERK and p-paxillin (S178), GAPDH and ERK were purchased from Santa Cruz Biotechnology (California, USA). The band intensities on the blots were quantified with Image J. Software. Relative band intensity of each molecule was calculated, taking the data of untreated HCC372 or HCC329 as 1.0. The results were shown in FIGS. 5A and 5B, in which (**) (##) and (*) (#) represent statistical significance (p<0.005 and p<0.05, respectively, n=3) between the indicated inhibitor-treated sample and untreated HCC329 or HCC372 control group."}, "HCC329 [3]": {"test_system": "HCC329", "assay": "HCC329 tumor development and metastasis in SCID mice model", "assay_type": "in vivo", "conditions": "FIP-gts 4.0-20 μg/g mouse, intraperitoneal twice a week, 2 months", "description": "HCC329 cells (approximately 2×10^7) suspended in 100 μl Dulbecco's Modified Eagle Medium (DMEM; Gibco, Grand Island, N.Y., USA) were directly injected into the subserosa of the middle liver lobe of the SCID mice, followed by intraperitoneal administration twice a week with DMEM as a vehicle, vehicle-containing FIP-gts (4.0-20 μg/g mouse) or JNJ (0.5-2.0 nmole/g mouse).\nThe mice were sacrificed 2 months after injection. Tumor mass was measured and the occurrence of intrahepatic metastasis and/or extrahepatic metastasis was recorded. Nodules with diameter of more than 0.1-0.2 cm observed on the left or right lobes were recognized as secondary tumor foci. […] Extra-hepatic metastasis was defined to be the case where the tumors appearing in organs other than liver such as in intestine. During the animal experiment, the regulations relevant to the care and use of laboratory animals were followed. This was approved by the Institutional Animal Care and Use Committee (IACUC) in Tzu Chi University (No. of consent form: 102080)."}, "HCC372 [4]": {"test_system": "HCC372", "assay": "cell proliferation assay (doubling time), HCC372", "assay_type": "cell-based, human", "conditions": "0.5, 1.0 and 2.0 μg/ml, dose dependent, 72 hours, untreated = 100%", "description": "(§2) The most motile HCC cell lines identified in Example 2, namely HCC372 and HCC329, were employed for testing the molecular and cellular effects of FIP-gts on HCC, in comparison with those of JNJ-38877605 (abbreviated hereafter as JNJ), which is an ATP-competitive inhibitor for the catalytic activity of c-Met. In the cell proliferation assay, HCC329 and HCC372 cells were untreated or treated with FIP-gts (prepared in Example 4) at 0.5, 1.0 or 2.0 μg/ml for 72 hours. Cell numbers were counted, and the relative doubling times of the respective treated groups were determined by taking the data of the untreated group as 100%. The wound healing migration assay was repeated as described in Example 2, except that HCC329 and HCC372 were additionally treated with FIP-gts and JNJ (MedKoo Biosciences, Chapel Hill, N.C., USA), respectively, for 48 hours. Relative migration was analyzed quantitatively by taking the motility of untreated cells (Con) as 1.0. The results were shown in FIGS. 3A and 3B, in which the symbols (**), (*) and (#) represent statistical significance (p<0.005 and p<0.05, respectively, n=3) between the indicated inhibitor-treated samples and untreated HCC329 or HCC372 control group."}, "[5]": {"test_system": "p-JNK, p-ERK, p-AKT, p-EGFR in HCC329", "assay": "immuno-blotting of signaling molecules, HCC329", "assay_type": "cell-based, human", "description": "as §1, with “HCC329 and HCC372 cells were treated with FIP-gts (2 μg/ml) for 4 or 24 hours.” left out, “1.0.” for “1.0. The results were shown in FIGS. 5A and 5B, in which (**) (##) and (*) (#) represent statistical significance (p<0.005 and p<0.05, respectively, n=3) between the indicated inhibitor-treated sample and untreated HCC329 or HCC372 control group.”"}, "HCC329 [6]": {"test_system": "HCC329", "assay": "wound healing migration assay, HCC329", "assay_type": "cell-based, human", "conditions": "FIP-gts, 48 hours", "description": "The HCC cells were cultivated on 24-well plates accompanied with a wound healing culture insert until confluence followed by serum starvation of the cells for 24 hours and the culture insert were then removed. After appropriate treatments, pictures were taken under a phase contrast microscope at indicated times.\nCell numbers were counted, and the relative doubling times of the respective treated groups were determined by taking the data of the untreated group as 100%. […] Relative migration was analyzed quantitatively by taking the motility of untreated cells (Con) as 1.0."}, "HCC372 [7]": {"test_system": "HCC372", "assay": "wound healing migration assay, HCC372", "assay_type": "cell-based, human", "conditions": "FIP-gts 2.0 μg/ml, 48 hours", "description": "(§3) The HCC cells were cultivated on 24-well plates accompanied with a wound healing culture insert until confluence followed by serum starvation of the cells for 24 hours and the culture insert were then removed. After appropriate treatments, pictures were taken under a phase contrast microscope at indicated times. Quantitative analysis of motility of the HCC cell lines described in Example 1 was performed by directly counting the cells migrating into the blanking area at 48 hours using Image J. Software available from the NIH website. In general, motilities of the mesenchymal HCCs were higher than those of the epithelial ones.\nThe most motile HCC cell lines identified in Example 2, namely HCC372 and HCC329, were employed for testing the molecular and cellular effects of FIP-gts on HCC, in comparison with those of JNJ-38877605 (abbreviated hereafter as JNJ), which is an ATP-competitive inhibitor for the catalytic activity of c-Met. In the cell proliferation assay, HCC329 and HCC372 cells were untreated or treated with FIP-gts (prepared in Example 4) at 0.5, 1.0 or 2.0 μg/ml for 72 hours. Cell numbers were counted, and the relative doubling times of the respective treated groups were determined by taking the data of the untreated group as 100%. […] Relative migration was analyzed quantitatively by taking the motility of untreated cells (Con) as 1.0. […]"}, "HepG2": {"test_system": "HepG2", "assay": "wound healing migration assay, HGF-induced HepG2", "assay_type": "cell-based, human", "conditions": "25 nM HGF, FIP-gts 2.0 μg/ml versus JNJ 26.5 nM, 48 hours", "description": "as §3\nIn a separate experiment, human hepatoma cell line HepG2, a non-motile HCC cell line conventionally used for observing HGF-inducible molecular and cellular effects, was employed. In this experiment, the wound healing migration assay described in Example 2 was again repeated, except that HepG2 (purchased from Bioresource Collection and Research Center (BCRC), Hsinchu, Taiwan) was treated with FIP-gts or JNJ-38877605 for 48 hours in the presence or absence of 25 nM HGF (PeproTech Inc., Rocky Hill, N.J., USA). Relative migration was quantitatively analyzed taking the motility of untreated cells (Con) as 1.0. […]"}, "[8]": {"test_system": "HGF-induced c-Met signaling in HepG2", "assay": "immuno-blotting of HGF-induced c-Met signaling, HepG2", "assay_type": "cell-based, human", "conditions": "2.0 μg/ml, 0.5 hour, HGF 25 nM", "description": "HepG2 cells were treated with FIP-gts (2.0 μg/ml) for 0.5 hour in the presence or absence of HGF (25 nM). Total proteins were harvested from the cells and immuno-blotting analysis was performed as described in Example 6, except using ERK as the loading control. The results were shown in FIGS. 5C and 5D, in which (**) represent statistical significance (p<0.005, n=3) between the indicated HGF/FIP-gts co-treated sample and the HGF alone group."}, "HCC329 [9]": {"test_system": "HCC329", "assay": "cell proliferation assay (doubling time), HCC329", "assay_type": "cell-based, human", "conditions": "0.5, 1.0 and 2.0 μg/ml, dose dependent, 72 hours, untreated = 100%", "description": "as §2"}},
  "data": [
    {"substance": "FIP-gts: fungal immunomodulatory protein of SEQ ID NO: 1 (Ganoderma tsugae), recombinantly expressed in Saccharomyces cerevisiae", "values": [
      {"measurement": "adverse effects (activity of animals, integrity of organs)", "setting": "[1]", "result": "no adverse effects was observed"},
      {"measurement": "effect on p-JNK", "setting": "[2]", "result": "didn't decrease p-JNK at all"},
      {"measurement": "suppression of expression of Met protein", "setting": "[2]; 4th hour", "result": "90-95%"},
      {"measurement": "suppression of phosphorylation of AKT", "setting": "[2]; 4th hour", "result": "80-95%"},
      {"measurement": "suppression of phosphorylation of ERK", "setting": "[2]; 4th hour", "result": "80-95%"},
      {"measurement": "suppression of phosphorylation of Met (at Tyr1234)", "setting": "[2]; 4th hour", "result": 55, "unit": "%"},
      {"measurement": "secondary tumors on liver lobes (intra-hepatic metastasis)", "setting": "HCC329 [3]", "result": "normal liver lobule structure"},
      {"measurement": "tumor progression (primary tumor growth and intra-metastasis) of HCC329", "setting": "HCC329 [3]", "result": "dramatically suppressed tumor progression"},
      {"measurement": "increase of doubling time", "setting": "HCC372 [4]", "result": "14-47%"},
      {"measurement": "decrease of phosphorylation of AKT", "setting": "[5]; 2.0 μg/ml, 24 hours", "result": 18, "unit": "%"},
      {"measurement": "decrease of phosphorylation of ERK", "setting": "[5]; 2.0 μg/ml, 24 hours", "result": 51, "unit": "%"},
      {"measurement": "decrease of phosphorylation of JNK", "setting": "[5]; 2.0 μg/ml, 24 hours", "result": 85, "unit": "%"},
      {"measurement": "phosphorylated EGFR (p-EGFR) level", "setting": "[5]; 16 hours, versus untreated, data not shown", "result": "remarkably reduced"},
      {"measurement": "suppression of cell migration", "setting": "HCC329 [6]", "result": 80, "unit": "%"},
      {"measurement": "suppression of cell migration", "setting": "HCC372 [7]", "result": 95, "unit": "%"},
      {"measurement": "prevention of HGF-induced cell migration", "setting": "HepG2", "result": "much more effectively than JNJ"},
      {"measurement": "suppression of HGF-induced p-ERK", "setting": "[8]", "result": "85-90%"},
      {"measurement": "suppression of HGF-induced p-JNK", "setting": "[8]", "result": "85-90%"},
      {"measurement": "suppression of HGF-induced p-c-Met", "setting": "[8]", "result": "85-90%"},
      {"measurement": "suppression of HGF-induced phosphorylated paxillin (at Ser 178)", "setting": "[8]", "result": "85-90%"},
      {"measurement": "increase of doubling time", "setting": "HCC329 [9]", "result": "25-46%"}
    ]}
  ]
}
